Measured values: US20150335055A1, “BEVERAGE PR[…] BASED ON PIMARICIN AND HEADSPACE GAS” (PEPSICO, INC., priority 2013, published 2015)

Legend:
[1] = Degradation kinetics of pimaricin in beverage without β-cyclodextrin, UV-visible peak ratio (Background Example 2); type: physicochemical; conditions: beverage pH 3.4; no β-cyclodextrin
Source text: (§1) Such reactions are a consequence of the formation of reactive oxygen species (ROS) wherein oxygen merely serves as an intermediate in the transfer of electrons in REDOX type reactions which ultimately result in the degradation of more complex molecules such as pimaricin. In this regard, O2 behaves similar to a catalyst. Similar to many reactions involving catalyst, the amount of oxygen required to drive in such reactions is very small. In this regard, it is of interest to evaluate the stability of pimaricin in solution under differing conditions of oxygen tension. Clearly, it is also of interest to establish whether the formation of a complex between pimaricin and β-cyclodextrin serves to stabilize pimaricin from degradation by reaction with oxygen. […] Briefly, pimaricin yields a very distinctive UV-visible spectrum with 3 separate absorption maxima. As pimaricin degrades, the peak heights diminish. Degradation can be tracked through the diminishing peak height of any single peak maxima or through changes in relative peak height.
Freshly prepared samples of pimaricin in water yield a spectrogram of 3 peak 1 (320 nm) peak 2 (304 nm) and peak 3 (291 nm). […] These differences are a reflection of the conjugated diene structure of pimaricin. As the integrity of the conjugate structure gives way to degradation, the relative peak heights are subject to change. […]

spoilage organisms = test: Degradation kinetic of pimaricin and onset of spoilage in carbonated beverage (Background Example 4); type: cell-based
Source text: In the absence of analytical data about the stability of pimaricin in solution, the interpretation of the data about the stability of product over time can be interpreted in one of two ways. Either no degradation of pimaricin occurred and product spoiled because of the outgrowth of those few organisms that were tolerant to the quantity of pimaricin present or spoilage occurred as a consequence of the survival and then outgrowth of organisms as a consequence of the degradation of pimaricin below some critical concentration. A strong argument for the latter is offered in Background Example 4, FIG. 4. Herein, the degradation of pimaricin is tracked from initial concentrations of 13 and 25 ppm in parallel with previously established incidence of spoilage in samples that initially contain 13 and 25 ppm. […] Product contains in excess of 2000 ppb O2.
In the presence of structurally intact pimaricin, spoilage organisms are inhibited from growth. Once the integrity of the bulk pimaricin is compromised, the organisms are able to grow. Regardless of initial concentration, pimaricin in 3.7 volume CO2 beverage will degrade at the same rate. Commonly, carbonated beverages contain a substantial amount of oxygen (>3500 ppb). Given a starting concentration of 13.5 ppm, the degradation of pimaricin is such that the concentration of pimaricin falls to below the minimum inhibitory concentration ( . . . ) at around 80 days. At this time, spoilage organisms begin to grow and induce spoilage (χ).

[2] = Loss of pimaricin over time in water as a function of O2 content and complex with β-cyclodextrin (Background Example 3); type: physicochemical
Source text: as §1
Given a method to monitor the changes in concentration of pimaricin, it is then possible to establish whether pimaricin degrades differently as a function of variables such as initial oxygen tension of solution. Background Example 3, FIG. 3 captures results for the degradation of pimaricin over a time period of several months as a function of initial oxygen tension and the presence or absence of a complex between pimaricin and β (beta) cyclodextrin.
The initial concentration of pimaricin in complex ≧400 ppm and so pimaricin is fully bound to β-cyclodextrin. Measurements in distilled water at neutral pH and 25° C. Thus, regardless of the presence or absence of a complex with cyclodextrin, pimaricin is subject to degradation over time when in solution.

[3] = test system: pooled inoculum of strains of Saccharomyces Brettanomyces and Zygosaccharomyces; test: 16 week spoilage trial in carbonated mock grape beverage (3.7 and 4.5 volumes CO2), Example 1; type: cell-based; conditions: 1.1 ppm pimaricin, no cyclodextrin; for first note of spoilage: 25° C.; for incidence of spoilage (frequency, 1=100%): after 100 days
Experimental: A 16 week trial was conducted with a mock grape 12 Brix 2% grape juice mock glass “pony” 9.8 oz. bottle. Beverages were carbonated to 3.7 and 4.5 volumes. Five containers of each CO2 level were not inoculated and served as negative controls. Five containers of each CO2 level were inoculated with a pooled inoculum of strains of Saccharomyces Brettanomyces and Zygosaccharomyces such that an initial cell density of 100 organisms per milliliter was achieved. These samples served as positive controls. Half of the remaining containers received the same inoculum and were also dosed with pimaricin to a concentration of 1.1 mg 1^−1 (mg per liter or mg/L). The remaining containers were dosed with pimaricin in complex with β-cyclodextrin in a manner that yielded a final concentration of pimaricin of 0.8 ppm. All samples were then held at 25° C. for the duration of the study. During the course of the study, pimaricin concentration was established in samples employing UV-Visible spectroscopy.

(IR,3S,5R,7R,8E,12R,14E,16E,18E,20E,22R,24S,25R,26S)-{[3S,4S,5S,6R)-4-amino-3,5-dihydroxy-6-methyloxan-2-yl]oxy}-1,3,26 trihydroxy-12-methyl-10-oxo-6,11,28-trioxatricyclo[22.3.1.0^5,7]octacosa-8,14,16,18,20 pentaene-25-carboxylic acid [pimaricin]
degradation in aqueous suspension [1]: degrades relatively quickly | critical concentration of pimaricin (no spoilage above it) (spoilage organisms; 3.7 volume CO2 beverage): about 2 ppm | incubation time before spoilage (spoilage organisms; initial concentration 13 ppm pimaricin, carbonated beverage 3.6 volumes CO2): > 80 days | incidence of spoilage (spoilage organisms; initial concentration 13 ppm pimaricin, carbonated beverage 3.6 volumes CO2, in excess of 2000 ppb O2): 33% | pimaricin concentration below which spoilage ensues (spoilage organisms; intersect of time of onset of spoilage and degradation plot for 13 ppm pimaricin): 1.5-2 ppm | spoilage among samples evaluated (spoilage organisms; product containing 25 ppm pimaricin, carbonated beverage 3.6 volumes CO2): did not suffer any spoilage | time at which pimaricin concentration falls below the minimum inhibitory concentration (spoilage organisms; starting concentration 13.5 ppm, 3.7 volume CO2 beverage): around 80 days | spoilage from outgrowth of previously inoculated organisms (spoilage organisms; starting concentration 25 ppm pimaricin, 3.7 volume CO2 beverage): no ensuing spoilage | effect of lowering oxygen concentration on rate of degradation ([2]; not complexed, oxygen lowered to 3500 ppb): does not measurably impact the rate of degradation | degradation over time ([2]; not complexed, water containing oxygen in excess of 8500 ppb): degrades quite quickly | rate of degradation versus water containing 8300 ppm O2 ([2]; pimaricin alone in water containing only, neutral pH, 25° C.): about the same rate | rate of degradation versus pimaricin complex β-cyclodextrin ([2]; water containing 8300 ppb O2, distilled water, neutral pH, 25° C.): slightly faster rate | first note of spoilage ([3]; 3.7 volumes CO2): 20 days | first note of spoilage ([3]; 4.5 volumes CO2): 20 days | incidence of spoilage (frequency, 1=100%) ([3]; 3.7 volumes CO2): 0.6 | incidence of spoilage (frequency, 1=100%) ([3]; 4.5 volumes CO2): 0.6
